Blank lines part the entries; values can stand above or below the compound they belong to.
Key:
[1] = tested on: MPO; conditions: compared with N-methylated diamines; Hashimoto 1990, Walton and McLauchlan 1990, Boswell 1999; cited from earlier work
[2] = tested on: MPO and PMT expression in roots; assay: qRT-PCR analysis of MPO and PMT expression in MeJa-treated roots; type: in vivo, Nicotiana benthamiana; conditions: MeJa 11 μM in hydroponic solution
Procedure: Nicotiana benthamiana (Solanaceae) seedlings were grown hydroponically in 0.25× Hoagland's solution supplemented with iron chelate solution and oxygenated using an aquarium bubbler. Roots from three-week old plants were sampled before (t=0) and at 1, 4, and 7 hours after addition of MeJa to a final concentration of 11 μM. Total RNA was isolated from 450 mg each of untreated leaves, untreated roots, and a combined MeJa-treated root sample composed of 150 mg roots each from the 1, 4 and 7 hour time points using a RNeasy midi kit (Qiagen). We constructed three separate subtractive cDNA libraries: NBREL2, with mRNA pooled from MeJa-treated roots as tester and untreated root mRNA as driver; NBLEL3, with mRNA pooled from MeJa-treated roots as tester and leaf mRNA as driver; and NBREL4, with mRNA pooled from MeJa-treated roots as both tester and driver.
The inducibility of MPO by MeJa application was determined using quantitative RT-PCR (qRT-PCR). The same PCR primers were used as for RT-PCR analysis of expression in different tissues. Total RNA was extracted from hydroponically grown roots immediately before and 1, 4, and 7 hours after addition of MeJa (11 μM) to the hydroponic solution. Hydroponic conditions are detailed in Example 1. […]

[3] = tested on: recombinant MPO (N-methylputrescine oxidase); assay: Recombinant MPO enzyme assay (Amplex red hydrogen peroxide/peroxidase system); type: biochemical, Nicotiana benthamiana
Procedure: Protein extracts was prepared from the roots of buffer control, TRV-GFP and TRV-MPO (214D11) infected plants. The extraction method described in Hashimoto T. et al. (Plant Physiol. 93: 216-221 (1990)) was used. Briefly, 1 g roots was ground in liquid nitrogen and suspended in 20 ml of extraction buffer containing 100 mM potassium phosphate pH 7.5, 0.25 M sucrose, 5 mM EDTA, 0.3% ascorbate and 10% PVPP. After centrifugation at 500 g for 30 min, the supernatant was further centrifuged at 11,000 g for another 30 minutes. The supernatant was subjected to two rounds of 20% and 40% ammonium sulphate precipitation. The precipitate was resuspended in 1 ml water, followed by dialysis overnight in 2 l of buffer containing 20 mM potassium phosphate pH 7.5, 1 mM DTT and 20% glycerol. The protein concentration was determined by DC protein assay kit (BioRad). […] After incubating the mixture at 30° C. for 30 min, the fluorescence was measured with a fluorescence microplate reader (Victor3 UV multilabel reader, PerkinElmer) using excitation at 530-560 nm and emission at 590 nm.
The ORF of the N. benthamiana MPO was expressed in E. coli and the recombinant enzyme was purified for biochemical characterization. […] The protein concentration was determined with DC protein assay kit (BioRad) and MPO purity was analyzed with SDS-PAGE electrophoresis (BioRad). […]

Compound: NCCCCCN [Cadaverine]
Affinity as substrate for MPO [1]: lower affinity than N-methylated diamines

Compound: CC/C=C\CC1C(=O)CCC1CC(=O)OC (centres unmarked) [MeJa, methyljasmonate]
Increase of MPO expression over pre-induction levels ([2]; roots before and 1, 4, 7 hours after, actin reference (FIG. 3)): 23 fold | Change of PMT transcript levels in response to the inducer ([2]; roots, compared with MPO (FIG. 3)): even more dramatic increase

Km ([3]; 1 μg Talon purified MPO, N-methylputrescine 10 mM to 0.01 mM, 30°, 30 minutes): 100 µM
Compound: CNCCCCN [N-methylputrescine]
Substrate specificity of recombinant MPO ([3]; 1 mM of N-methylputrescine, putrescine, diaminopropane, cadaverine, spermine and spermidine (FIG. 9)): preferred N-methylputrescine as a substrate
